{
  "source": "the supplement of paper PMC10331698",
  "key": {"[1]": {"compound": "OCC(F)(F)C(F)(F)C(F)(F)C(F)(F)C(F)(F)C(F)(F)C(F)(F)C(F)(F)C(F)(F)C(F)(F)C(F)(F)F [11:1 Fluorotelomer alcohol]", "experiment": "level (log10 ratio to DMSO vehicle control); higher = higher biomarker level / cell amount than vehicle control", "settings": "in DMSO", "procedure": "(§1)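 BioMAP Diversity Plus panel of 12 human primary cell co-culture systems (3C, 4H, LPS, SAg, BT, BF4T, BE3C, CASM3C, HDF3CGF, KF3CT, MyoF, Mphg). Compounds were added 1 h before stimulation and left for 24 h (MyoF 48 h; BT 72 h for soluble read-outs or 6 d for IgG). Biomarkers were read by ELISA, cytotoxicity by SRB, PBMC viability and proliferation by Alamar Blue. Each well value was divided by the mean of 8 DMSO control wells on the same plate and log10 transformed; duplicate blinded samples were tested at 4 concentrations.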"}, "[2]": {"compound": "O=P(O)(O)CCC(F)(F)C(F)(F)C(F)(F)C(F)(F)C(F)(F)C(F)(F)F [2-(Perfluorohexyl)ethylphosphonic acid]", "experiment": "level (log10 ratio to DMSO vehicle control); higher = higher biomarker level / cell amount than vehicle control", "settings": "in DMSO", "procedure": "as §1"}},
  "note": "± gives the standard deviation of the averaged measurements.",
  "data": [
    {"test system": "KF3CT:CD54/ICAM-1", "values": [
      {"measurement": "level (log10)", "setting": "[1]; 1100 nM", "value": "-0.014 ± 0.0071"},
      {"measurement": "level (log10)", "setting": "[1]; 3300 nM", "value": "-0.0295 ± 0.0021"},
      {"measurement": "level (log10)", "setting": "[1]; 10000 nM", "value": "-0.0045 ± 0.012"},
      {"measurement": "level (log10)", "setting": "[2]; 6700 nM", "value": "-0.0015 ± 0.011"},
      {"measurement": "level (log10)", "setting": "[2]; 20000 nM", "value": "0.006 ± 0.028"},
      {"measurement": "level (log10)", "setting": "[2]; 60000 nM", "value": "0.02 ± 0.02"}
    ]},
    {"test system": "lMphg:CD69", "values": [
      {"measurement": "level (log10)", "setting": "[1]; 1100 nM", "value": "-0.038 ± 0.017"},
      {"measurement": "level (log10)", "setting": "[1]; 3300 nM", "value": "-0.103 ± 0.028"},
      {"measurement": "level (log10)", "setting": "[1]; 10000 nM", "value": "-0.0685 ± 0.0078"},
      {"measurement": "level (log10)", "setting": "[2]; 6700 nM", "value": "-0.045 ± 0.042"},
      {"measurement": "level (log10)", "setting": "[2]; 20000 nM", "value": "-0.0285 ± 0.023"},
      {"measurement": "level (log10)", "setting": "[2]; 60000 nM", "value": "0.0175 ± 0.053"}
    ]},
    {"test system": "HDF3CGF:CXCL8/IL-8", "values": [
      {"measurement": "level (log10)", "setting": "[1]; 1100 nM", "value": "-0.002 ± 0.0057"},
      {"measurement": "level (log10)", "setting": "[1]; 3300 nM", "value": -0.007},
      {"measurement": "level (log10)", "setting": "[1]; 10000 nM", "value": -0.001},
      {"measurement": "level (log10)", "setting": "[2]; 6700 nM", "value": "-0.005 ± 0.0042"},
      {"measurement": "level (log10)", "setting": "[2]; 20000 nM", "value": "-0.0125 ± 0.00071"},
      {"measurement": "level (log10)", "setting": "[2]; 60000 nM", "value": "0.012 ± 0.0071"}
    ]},
    {"test system": "HDF3CGF:SRB", "values": [
      {"measurement": "level (log10)", "setting": "[1]; 1100 nM", "value": "-0.0055 ± 0.011"},
      {"measurement": "level (log10)", "setting": "[1]; 3300 nM", "value": "-0.0055 ± 0.016"},
      {"measurement": "level (log10)", "setting": "[1]; 10000 nM", "value": "0.0315 ± 0.036"},
      {"measurement": "level (log10)", "setting": "[2]; 6700 nM", "value": "-0.025 ± 0.045"},
      {"measurement": "level (log10)", "setting": "[2]; 20000 nM", "value": "0.0355 ± 0.029"},
      {"measurement": "level (log10)", "setting": "[2]; 60000 nM", "value": "0.001 ± 0.05"}
    ]},
    {"test system": "HDF3CGF:M-CSF", "values": [
      {"measurement": "level (log10)", "setting": "[1]; 1100 nM", "value": "0.0115 ± 0.016"},
      {"measurement": "level (log10)", "setting": "[1]; 3300 nM", "value": "0.0095 ± 0.032"},
      {"measurement": "level (log10)", "setting": "[1]; 10000 nM", "value": "-0.003 ± 0.021"},
      {"measurement": "level (log10)", "setting": "[2]; 6700 nM", "value": "0.0025 ± 0.0092"},
      {"measurement": "level (log10)", "setting": "[2]; 20000 nM", "value": "0.0265 ± 0.0092"},
      {"measurement": "level (log10)", "setting": "[2]; 60000 nM", "value": "0.013 ± 0.014"}
    ]},
    {"test system": "BE3C:SRB", "values": [
      {"measurement": "level (log10)", "setting": "[1]; 1100 nM", "value": "-0.03 ± 0.014"},
      {"measurement": "level (log10)", "setting": "[1]; 3300 nM", "value": "-0.0485 ± 0.005"},
      {"measurement": "level (log10)", "setting": "[1]; 10000 nM", "value": "-0.0235 ± 0.0064"},
      {"measurement": "level (log10)", "setting": "[2]; 6700 nM", "value": "-0.01 ± 0.0042"},
      {"measurement": "level (log10)", "setting": "[2]; 20000 nM", "value": "-0.001 ± 0.0085"},
      {"measurement": "level (log10)", "setting": "[2]; 60000 nM", "value": "0.001 ± 0.02"}
    ]},
    {"test system": "3C:CD141/Thrombomodulin", "values": [
      {"measurement": "level (log10)", "setting": "[1]; 1100 nM", "value": "0.0225 ± 0.021"},
      {"measurement": "level (log10)", "setting": "[1]; 3300 nM", "value": "0.0705 ± 0.00071"},
      {"measurement": "level (log10)", "setting": "[1]; 10000 nM", "value": "0.09 ± 0.02"},
      {"measurement": "level (log10)", "setting": "[2]; 6700 nM", "value": "0.01 ± 0.024"},
      {"measurement": "level (log10)", "setting": "[2]; 20000 nM", "value": "0.02 ± 0.051"},
      {"measurement": "level (log10)", "setting": "[2]; 60000 nM", "value": "0.0895 ± 0.044"}
    ]},
    {"test system": "MyoF:Collagen I", "values": [
      {"measurement": "level (log10)", "setting": "[1]; 1100 nM", "value": "0.051 ± 0.047"},
      {"measurement": "level (log10)", "setting": "[1]; 3300 nM", "value": "0.0475 ± 0.021"},
      {"measurement": "level (log10)", "setting": "[1]; 10000 nM", "value": "0.0435 ± 0.013"},
      {"measurement": "level (log10)", "setting": "[2]; 6700 nM", "value": "-0.0025 ± 0.005"},
      {"measurement": "level (log10)", "setting": "[2]; 20000 nM", "value": "-0.0045 ± 0.0021"},
      {"measurement": "level (log10)", "setting": "[2]; 60000 nM", "value": "0.0085 ± 0.011"}
    ]},
    {"test system": "MyoF:MMP-1", "values": [
      {"measurement": "level (log10)", "setting": "[1]; 1100 nM", "value": "-0.027 ± 0.0042"},
      {"measurement": "level (log10)", "setting": "[1]; 3300 nM", "value": "-0.0445 ± 0.0021"},
      {"measurement": "level (log10)", "setting": "[1]; 10000 nM", "value": "0.004 ± 0.052"},
      {"measurement": "level (log10)", "setting": "[2]; 6700 nM", "value": "0.008 ± 0.0042"},
      {"measurement": "level (log10)", "setting": "[2]; 20000 nM", "value": "0.008 ± 0.0099"},
      {"measurement": "level (log10)", "setting": "[2]; 60000 nM", "value": "0.0755 ± 0.052"}
    ]},
    {"test system": "HDF3CGF:TIMP-1", "values": [
      {"measurement": "level (log10)", "setting": "[1]; 1100 nM", "value": "-0.029 ± 0.024"},
      {"measurement": "level (log10)", "setting": "[1]; 3300 nM", "value": "-0.07 ± 0.0085"},
      {"measurement": "level (log10)", "setting": "[1]; 10000 nM", "value": "-0.033 ± 0.016"},
      {"measurement": "level (log10)", "setting": "[2]; 6700 nM", "value": "-0.0115 ± 0.018"},
      {"measurement": "level (log10)", "setting": "[2]; 20000 nM", "value": "0.0035 ± 0.005"},
      {"measurement": "level (log10)", "setting": "[2]; 60000 nM", "value": "0.0545 ± 0.06"}
    ]}
  ]
}
